Tests used:
[1] = test system: invariant NKT cells in a mixed splenocyte culture; test: α-Gal-Cer stimulated IFN-γ production by iNKT cells in mixed splenocyte culture; format: cell-based, mice; details: for effect of antagonist on ATL146e inhibition of α-Gal-Cer mediated IFN-γ production: 1 μM α-Gal-Cer
Protocol: (§1) FIGS. 5A-E. Inhibition by ATL146e of IFN-γ production by activated NKT cells. A) Purified NKT cells (200,000 per well) were incubated on immobilized anti-CD3 mAb in the presence of vehicle or 100 nM ATL146e. Supernatants were collected after 24 hours and IFN-γ concentrations were measured by ELISA. Data are shown as the mean±SEM from three independent experiments performed in triplicate. *p<0.01 vs. vehicle control as assessed by unpaired t-test B) Bulk splenocytes (300,000 cells per well) were incubated with 1 U/mL ADA and 1 nM-1 μM α-galactosylceramide in the presence of 100 nM ATL146e or vehicle. C) Bulk splenocytes (300,000 cells per well) were incubated with 1 U/mL ADA and 1 μM α-galactosylceramide in the presence or absence of varying concentrations of ATL146e±100 nM ZM241385 or vehicle. D) Bulk splenocytes (300,000 cells per well) were incubated with 1 U/mL ADA and 1 μM α-galactosylceramide in the presence or absence of 1 nM ATL146e±1 μM 8-SPT or vehicle. E) Purified CD4^+NK1.1^+ T cells (150,000 cells per well) were incubated with lymphocyte and NK cell-deficient splenocytes (300,000 cells per well), 1 U/mL ADA and 1 μM α-galactosylceramide in the presence or absence of 100 nM ATL146e±100 nM ZM241385. NK1.1-expressing cells were depleted from RAG 1 KO splenocytes via FACSVantage SE Turbo Sorter. Supernatants were collected after 48 hours, and IFN-γ concentrations were determined by ELISA. Data shown are from a single experiment performed in triplicate, representative of three independent experiments; error bars indicate SEM. (B-E)*p<0.01 vs. vehicle control as assessed by one way ANOVA followed by Dunnetts multiple comparison test.
(§2) Cells were washed and resuspended in RPMI 1640 medium supplemented with 10% heat-inactivated fetal bovine serum and 1% antibiotic-antimycotic (Gibco, Carlsbad, Calif.). In vitro activation of NKT cells was achieved by co-culture for 48 hours with splenocytes and 1 nM-1 μM α-Gal-Cer (KRN7000; from Kumi Miyayama of Kirin Brewery Company, Tokyo) at 37° C. in 5% CO2. Alternately, NKT cells were activated by incubation for 24 hours in 96 well plates coated with 2-10 μg/mL immobilized anti-CD3 mAb (BD Biosciences) at 37° C. in 5% CO2. All in vitro T cell activation experiments were performed with the addition of 1 U/mL adenosine deaminase (ADA) (Roche, Indianapolis, Ind.) to remove endogenous adenosine produced by the cells that may partially activate the A2AR. […]
(§3) IFN-γ concentrations in cell culture supernatants or serum samples were measured by ELISA according to the manufacturer's protocol (e-Bioscience).

[2] = test system: purified CD4+ NK1.1+ NKT cells; test: IFN-γ release from purified NKT cells activated with α-Gal-Cer in the presence of NK cell-depleted RAG 1 KO splenocytes; format: cell-based, mice; details: 1 μM α-Gal-Cer
Protocol: as §1, with “E) Purified CD4^+NK1.1^+ T cells (150,000 cells per well) were incubated with lymphocyte and NK cell-deficient splenocytes (300,000 cells per well), 1 U/mL ADA and 1 μM α-galactosylceramide in the presence or absence of 100 nM ATL146e±100 nM ZM241385. NK1.1-expressing cells were depleted from RAG 1 KO splenocytes via FACSVantage SE Turbo Sorter.” left out, “Data shown are from a single experiment performed in triplicate, representative of three independent experiments; error bars indicate SEM.” left out, “test. […]” for “test.”
as §3

[3] = test system: hepatic IRI in WT C57BL/6 mice; test: Hepatic ischemia reperfusion injury (72 min ischemia, 24 h reperfusion): serum ALT and necrotic area; format: in vivo; details: 72 min hepatic ischemia
Protocol: (§4) Mice were anesthetized by intraperitoneal injection of ketamine (100 mg/kg) and xylazine (10 mg/kg). Ambient temperature was controlled in the range of 24-26° C. and mice were placed on a 37° heating pad. Core body temperature of selected mice was monitored with a TH-8 Thermalert monitoring thermometer (Physitemp) and ranged from 35-36°. After midline laparotomy, a microaneurysm clip was applied to the hepatic triad above the bifurcation to clamp the flow of the hepatic artery, portal vein, and bile duct. After superfusion of the liver with warm saline, the peritoneum was closed during 72 min of ischemia. The peritoneum was then reopened and the microaneurysm clip was removed. […]
(§5) Following liver ischemia, blood was collected via retro-orbital bleed 24 hours after the initiation of reperfusion. Serum ALT was measured with a transaminase kit according to the manufacture's protocol (Pointe Scientific, Canton, Mich.). […] The plate was placed in a spectrophotometer preheated to 37° C., and the absorbance at […] was measured every minute for 10 minutes. The slope of the linear portion of the change in absorbance over time was used to calculate IU/L of ALT.
Mice were sacrificed and livers perfused with saline via the portal vein at various times after the initiation of reperfusion. […] Necrotic area was quantified using Adobe Photoshop software.

[4] = test system: RAG 1 KO mice reconstituted with CD4+NK1.1+ NKT cells; test: Hepatic IRI in RAG 1 KO mice after adoptive transfer of NKT cells: serum ALT; format: in vivo
Protocol: as §4, with “removed. For select experiments, animals received an i.p. loading dose (1 μg/kg) of ATL146e or vehicle control immediately after the onset of reperfusion, and a primed Alzet osmotic minipump was implanted intraperitoneally.” for “removed.”
as §5

[5] = test system: NKT cells isolated from post-ischemic mouse liver and liver-draining lymph nodes; test: Intracellular IFN-γ in NKT cells from post-ischemic liver after 2 hours of reperfusion (FACS); format: in vivo, mice; details: treatment at the initiation of reperfusion
Protocol: as §4, with “removed. For select experiments, animals received an i.p. loading dose (1 μg/kg) of ATL146e or vehicle control immediately after the onset of reperfusion, and a primed Alzet osmotic minipump was implanted intraperitoneally. ATL146e (10 ng/kg/min) or vehicle was placed in the pumps and delivered until the experiment was terminated. The peritoneum was sutured and the surgical wound was closed with metal staples.” for “removed.”
Intracellular IFN-γ was detected in liver NKT cells by FACS analysis using Fix and Perm Cell Permeabilization Reagents according to the manufacturer's protocol (Caltag Laboratories, Carlsbad, Calif.).

IFN-γ = test: Serum/plasma IFN-γ 24 hours after reperfusion (ELISA); format: in vivo, mice; details: 24 hours after reperfusion injury
Protocol: Mice were anesthetized by intraperitoneal injection of ketamine (100 mg/kg) and xylazine (10 mg/kg). Ambient temperature was controlled in the range of 24-26° C. and mice were placed on a 37° heating pad. Core body temperature of selected mice was monitored with a TH-8 Thermalert monitoring thermometer (Physitemp) and ranged from 35-36°. After midline laparotomy, a microaneurysm clip was applied to the hepatic triad above the bifurcation to clamp the flow of the hepatic artery, portal vein, and bile duct. After superfusion of the liver with warm saline, the peritoneum was closed during 72 min of ischemia. The peritoneum was then reopened and the microaneurysm clip was removed. For select experiments, animals received an i.p. loading dose (1 μg/kg) of ATL146e or vehicle control immediately after the onset of reperfusion, and a primed Alzet osmotic minipump was implanted intraperitoneally. ATL146e (10 ng/kg/min) or vehicle was placed in the pumps and delivered until the experiment was terminated. The peritoneum was sutured and the surgical wound was closed with metal staples. Animals were sacrificed by cervical dislocation at various time points after the initiation of reperfusion and blood was collected via retro-orbital bleed. […]
as §3

CD4+ NK1.1+ NKT cells = test: IFN-γ production by purified NKT cells activated on immobilized anti-CD3 mAb; format: cell-based, mice; details: Mus musculus, 100 nM, 24 hours of incubation, read-out: inhibition of TCR-stimulated IFN-γ production
Protocol: Wild-type, A2AR KO, or IFN-γ KO C57BL/6 mice were sacrificed and spleens removed. Splenocytes were passed through a 40 μm nylon cell strainer (BD Biosciences, San Jose, Calif.) and collected in phosphate buffered saline. Red blood cells were lysed and CD4^+ T lymphocytes were isolated with mouse CD4 subset column kits (R and D Systems, Minneapolis, Minn.) resulting in >92% pure CD4^+ T cells. The column-purified cells were stained for 30 minutes with FITC-conjugated anti-mouse CD4 and PE-conjugated anti-mouse NK1.1 (eBioscience, San Diego, Calif.) and sorted using a FACSVantage SE Turbo Sorter (Becton Dickinson, Franklin Lakes, N.J.) to produce cell populations of ≧99.8% pure CD4^+NK1.1^+ T lymphocytes.
as §2, with “CO2.” for “CO2. All in vitro T cell activation experiments were performed with the addition of 1 U/mL adenosine deaminase (ADA) (Roche, Indianapolis, Ind.) to remove endogenous adenosine produced by the cells that may partially activate the A2AR.”
as §3

**Q.** With `Nc1nc(NCCc2ccc(O)cc2)nc2nc(-c3ccco3)nn12` [ZM241385, 4-(2-[7-amino-2-[2-furyl][1,2,4]triazolo[2,3-a][1,3,5]triazin-5-yl-amino]ethyl)phenol] as the compound, how does the “effect of antagonist on ATL146e inhibition of α-Gal-Cer mediated IFN-γ production” value ([1]; 100 nM antagonist, varying concentrations of ATL146e) read?
**A.** causes a right shift in the ATL146e dose response curve

**Q.** What about the “effect of antagonist on ATL146e reduction of IFN-γ” value ([2]; co-treatment with 100 nM antagonist) of the same compound?
**A.** this effect was blocked

**Q.** With `Cn1c(=O)c2[nH]c(-c3ccc(S(=O)(=O)O)cc3)nc2n(C)c1=O` [8-SPT, 8-sulfophenyltheophylline] as the compound, how does the “effect of antagonist on ATL146e inhibition of α-Gal-Cer mediated IFN-γ production” value ([1]; 1 μM antagonist, 1 nM ATL146e) read?
**A.** blocks the inhibitory effects of ATL146e

**Q.** How did the “reduction in serum ALT levels versus vehicle treated controls” value ([3]; 24 hours after reperfusion) turn out when `CCNC(=O)C1OC(n2cnc3c(N)nc(C#CCC4CCC(C(=O)OC)CC4)nc32)C(O)C1O` (stereo not shown) [ATL146e, 4-{3-[6-Amino-9-(5-ethylcarbamoyl-3,4-dihydroxy-tetrahydro-furan-2-yl)-9H-purin-2-yl]-prop-2-ynyl}-cyclohexanecarboxylic acid methyl ester] was run?
**A.** approximately 58%

**Q.** And the necrotic area ([3]; 24 hours of reperfusion, H and E staining, vehicle 79.3±3%)?
**A.** 6.1±0.8%

**Q.** What about the “protection from tissue damage (serum ALT)” value ([4]; RAG 1 KO mice, 250,000 NKT cells from A2AR KO mice transferred) of the same compound?
**A.** abolishes the effect of agonist administration

**Q.** What about the “protection from tissue damage (serum ALT)” value ([4]; RAG 1 KO mice, 250,000 WT NKT cells transferred) of the same compound?
**A.** protects from tissue damage only when WT cells are transferred

**Q.** What about the “increase in intracellular IFN-γ expression of NKT cells (activation)” value [5] of the same compound?
**A.** significantly inhibits this activation

**Q.** What about the “elevation of plasma IFN-γ concentrations” value (IFN-γ) of the same compound?
**A.** diminished this elevation to a similar extent

**Q.** What about the inhibition at 0.1 µM (CD4+ NK1.1+ NKT cells) of the same compound?
**A.** ~73%

**Q.** What about the “inhibition of α-Gal-Cer stimulated IFN-γ production (in words)” value ([1]; 100 nM, 1 nM-1 μM α-Gal-Cer, mixed splenocyte culture, 48 hours) of the same compound?
**A.** inhibited competently

**Q.** And the EC50 ([1]; Mus musculus, NKT, stimulated by 1 μM α-Gal-Cer, mixed splenocytes, 48 hours, read-out: EC50 of inhibition of iNKT-mediated production of IFN-γ)?
**A.** 0.58 nM

**Q.** And the “reduction of IFN-γ derived from NKT cell activation” value ([2]; 100 nM ATL146e, lymphocyte-deficient NK cell-depleted RAG 1 KO splenocytes as APCs)?
**A.** 93%
